The values that follow are results of earlier work, collected in PMC9516332 (Frontiers in Oncology, 2022).

Each structure is given as a SMILES string.

Series [1] addresses T1, panel of 255 wild-type kinases (Homo sapiens, UniProt O14920).
T1 sequence (O14920 1-756): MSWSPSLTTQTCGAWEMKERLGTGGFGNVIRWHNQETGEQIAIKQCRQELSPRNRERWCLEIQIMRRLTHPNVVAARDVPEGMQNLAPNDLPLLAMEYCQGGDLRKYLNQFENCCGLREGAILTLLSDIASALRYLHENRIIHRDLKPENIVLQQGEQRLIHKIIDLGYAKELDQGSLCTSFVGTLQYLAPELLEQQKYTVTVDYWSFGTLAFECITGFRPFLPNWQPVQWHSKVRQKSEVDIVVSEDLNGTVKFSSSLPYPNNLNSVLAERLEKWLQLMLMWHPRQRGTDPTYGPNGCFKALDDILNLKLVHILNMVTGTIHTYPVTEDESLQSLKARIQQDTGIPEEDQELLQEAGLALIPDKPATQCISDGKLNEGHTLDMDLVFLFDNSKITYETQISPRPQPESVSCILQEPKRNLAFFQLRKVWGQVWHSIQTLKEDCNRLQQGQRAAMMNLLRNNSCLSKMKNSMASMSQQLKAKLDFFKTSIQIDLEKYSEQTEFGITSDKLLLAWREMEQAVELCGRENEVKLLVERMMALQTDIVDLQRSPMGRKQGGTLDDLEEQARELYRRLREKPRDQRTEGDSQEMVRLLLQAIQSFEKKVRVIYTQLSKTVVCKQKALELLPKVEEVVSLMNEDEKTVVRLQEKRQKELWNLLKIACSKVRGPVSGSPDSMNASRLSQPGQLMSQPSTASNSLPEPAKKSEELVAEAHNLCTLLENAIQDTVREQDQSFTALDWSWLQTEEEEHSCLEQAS
The note with it: kinase IKKβ; 1 µmol/L single concentration; ref DOI: 10.1371/journal.pone.0092146; cited from earlier work.

The target in series [2] is T2, panel of 255 wild-type kinases (Homo sapiens, UniProt O60285).
T2 sequence (O60285 1-661): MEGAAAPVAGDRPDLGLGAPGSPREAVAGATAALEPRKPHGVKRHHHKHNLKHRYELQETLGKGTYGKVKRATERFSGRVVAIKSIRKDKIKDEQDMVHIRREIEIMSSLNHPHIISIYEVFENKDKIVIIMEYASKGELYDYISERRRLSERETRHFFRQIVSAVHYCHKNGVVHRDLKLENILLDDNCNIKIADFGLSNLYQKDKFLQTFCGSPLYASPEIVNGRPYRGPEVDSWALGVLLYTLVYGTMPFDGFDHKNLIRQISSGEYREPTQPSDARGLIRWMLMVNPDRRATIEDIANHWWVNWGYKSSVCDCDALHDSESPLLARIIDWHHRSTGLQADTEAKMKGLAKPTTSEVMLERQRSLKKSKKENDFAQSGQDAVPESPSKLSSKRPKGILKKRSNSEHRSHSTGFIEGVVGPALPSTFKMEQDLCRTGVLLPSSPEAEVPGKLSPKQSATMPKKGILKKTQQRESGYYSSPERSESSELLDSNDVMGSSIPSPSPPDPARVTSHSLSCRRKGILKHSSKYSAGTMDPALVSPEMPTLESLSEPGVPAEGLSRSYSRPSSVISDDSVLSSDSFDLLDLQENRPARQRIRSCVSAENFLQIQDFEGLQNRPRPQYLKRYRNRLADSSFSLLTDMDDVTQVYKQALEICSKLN
The note with it: NuaK1; 1 µmol/L single concentration; ref DOI: 10.1371/journal.pone.0092146; cited from earlier work.

The target in series [3] is T3, panel of 255 wild-type kinases (Homo sapiens, UniProt Q13470).
T3 sequence (Q13470 1-666): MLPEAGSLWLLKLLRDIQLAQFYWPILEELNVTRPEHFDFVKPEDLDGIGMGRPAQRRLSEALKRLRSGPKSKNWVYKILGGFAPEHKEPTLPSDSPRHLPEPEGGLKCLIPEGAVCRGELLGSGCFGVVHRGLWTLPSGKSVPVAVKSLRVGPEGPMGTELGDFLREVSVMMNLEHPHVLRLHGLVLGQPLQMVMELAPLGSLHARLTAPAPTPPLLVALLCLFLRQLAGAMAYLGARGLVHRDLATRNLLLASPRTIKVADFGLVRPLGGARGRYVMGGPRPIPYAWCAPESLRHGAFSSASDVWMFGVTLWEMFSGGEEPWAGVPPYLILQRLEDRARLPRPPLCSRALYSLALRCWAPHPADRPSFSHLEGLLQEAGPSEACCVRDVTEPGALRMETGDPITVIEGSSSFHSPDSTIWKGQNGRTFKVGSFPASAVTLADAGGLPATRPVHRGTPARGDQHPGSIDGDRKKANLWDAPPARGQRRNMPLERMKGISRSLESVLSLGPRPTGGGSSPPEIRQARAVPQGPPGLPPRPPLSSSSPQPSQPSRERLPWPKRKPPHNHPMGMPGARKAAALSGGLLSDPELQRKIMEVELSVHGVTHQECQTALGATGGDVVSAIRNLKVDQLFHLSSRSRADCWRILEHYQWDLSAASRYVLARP
The settings on record: kinase TNK1; 1 µmol/L single concentration; ref DOI: 10.1371/journal.pone.0092146; cited from earlier work.

The target in series [4] is panel of 255 wild-type kinases (Homo sapiens, UniProt Q15208). The settings on record: NDR1; 1 µmol/L single concentration; ref DOI: 10.1371/journal.pone.0092146; cited from earlier work.
For series [5], the target named is panel of 255 wild-type kinases (Homo sapiens, UniProt Q9H2X6). The settings on record: kinase HIPK2; 1 µmol/L single concentration; ref DOI: 10.1371/journal.pone.0092146; cited from earlier work.
Series [6] addresses panel of 255 wild-type kinases (Homo sapiens, UniProt Q9P1W9). The settings on record: kinase PIM2; 1 µmol/L single concentration; ref DOI: 10.1371/journal.pone.0092146; cited from earlier work.
Series [7] deals with panel of 255 wild-type kinases (Homo sapiens, UniProt Q9Y5S2). The note with it: MRCKβ; 1 µmol/L single concentration; ref DOI: 10.1371/journal.pone.0092146; cited from earlier work.

Turning to `CCCS(=O)(=O)Nc1ccc(F)c(C(=O)c2c[nH]c3ncc(-c4ccc(Cl)cc4)cc23)c1F` [vemurafenib], the “%-inhibition at 1 µmol/L, IKKβ” value in series [1] is reported as -3.31%. In series [2], the “%-inhibition, NuaK1” value is 4%. The “%-inhibition at 1 µmol/L, TNK1” value in series [3] was 13%. Besides, the “%-inhibition, NDR1” value in series [4] was -3.81%. Besides, the “%-inhibition at 1 µmol/L, HIPK2” value in series [5] is reported as -5%. For the same compound, the “%-inhibition at 1 µmol/L, PIM2” value in series [6] is -2%. Besides, in series [7], the “%-inhibition, MRCKβ” value is listed as -5%.
